Reference: patent publication US20090181890A1, “Amylin and Amylin Agonists for Treating Psychiatric Diseases and Disorders” (Amylin Pharmaceuticals , Inc., priority 2006, published 2009)

How the values were obtained:
treated test animals = settings: cited from earlier work
[1] = compared to human amylin; cited from earlier work
[2] = adsorption onto glass container in liquid form; assay type: physicochemical
mice [3] = assay: marble burying; assay type: in vivo
Description: To confirm the interpretation of the findings outlined under Example 1, a variety of animal behavior assays were performed to test for anxiolytic, antidepressant, and antipsychotic effects of amylin administration. […] These specific behavioral tests are known to be sensitive to anxiolytic, antidepressant, or antipsychotic drugs. For these assays, rat amylin was administered to mice at doses ranging from 0.1 to 10 mg/kg, intraperitoneally or via a subcutaneously implanted osmotic pump (ALZET®) containing vehicle or rat amylin, and their performance in the assay was assessed.
Marble burying is used as a model for both anxiety and obsessive-compulsive disorder. See, for example, Chaki et al. (2003) J. Pharmacol. Exp. Ther. 304:818-826. Anxiolytics suppress marble burying activity. Mice were injected with the test agent (rat amylin at 0.1, 1.0 or 10 mg/kg, […] buspirone, or vehicle) 15-30 minutes prior to the test. Mice were then placed individually in clean cages containing 5-cm of hard wood bedding and 20 marbles spaced evenly in rows of five. The number of marbles buried in 30 minutes was recorded. […] Buspirone is a partial 5-HT1A agonist and an known anxiolytic agent.

mice [4] = settings: mouse, in vivo
Description: The PCP-induced locomotion test is used with the open field activity chambers and measures locomotion, rearing, and stereotypic activity under amphetamine/PCP-induced conditions. The test has predictive validity for some antipsychotic drugs that normalize the hyperactivity and stereotypic behavior seen with amphetamine and PCP. See, for example, Williams et al. (2006) Prog. Neuropsychopharmacol. Biol. Psychiatry 30:239-243. Mice were injected with the test agent (rat amylin at 0.1, 1.0 or 10 mg/kg, 3 mg/kg clozapine (CZP), or vehicle) 15-30 minutes prior injection with 5 mg/kg PCP. The animals were then placed in the center of an open field and activity was recorded for 60 minutes. […] CZP is an atypical, second generation antipsychotic drug has a mixed receptor profile, including the dopamine receptor.

[5] = weight gain induced by clozapine; assay type: in vivo, rats; settings: clozapine 0.025 and 0.25 mg/kg/day, s.c. osmotic pumps, 4 weeks; diet 58% kcal from fat; FIG. 7A
Description: The effect of amylin administration on weight gain induced by the second generation antipsychotic clozapine was examined. Adult, male Sprague-Dawley® rats (diet=58% kcal from fat) were implanted subcutaneously in the interscapular region with osmotic pumps that continuously delivered vehicle or drug for 4 weeks. In one experiment, rats were treated with vehicle or clozapine (0.025 and 0.25 mg/kg/day).

mice [6] = assay: prepulse inhibition (PPI) test; assay type: in vivo; settings: amylin at 10 mg/kg, haloperidol at 1 mg/kg; all prepulse levels (74, 78, and 82 dB); FIG. 5
Source text: The prepulse inhibition (PPI) test measures the reflex response to externally applied auditory stimulation (acoustic startle response) and is related to the deficiency in sensory-motor gating capacity seen in schizophrenia. The acoustic startle reflex is a very basic response to strong exteroceptive stimuli and is widely used to assess sensorimotor reactivity in animals and humans. A weak auditory stimulus (prepulse, 74-82 dB) given prior to the strong acoustic stimulus (120 dB) blunts the startle response. This blunting of the startle response is referred to as prepulse inhibition. See, for example, Conti et al (2005) Behavioral Neuroscience 119: 1052-1060. Antipsychotics increase the ability of the prepulse stimulus to blunt the startle response to the strong stimulus. Some psychotomimetic agents, such as phencyclidine (PCP) and ketamine, can actually reduce the percent prepulse inhibition and stimulate a psychotic-like state in animals, which can be antagonized by antipsychotic agents.
Mice were injected with the test agent (rat amylin at 0.1, 1.0 or 10 mg/kg, or vehicle) […] prior to the test or with haloperidol at 1 mg/kg 30 minutes prior to the test. The mice were placed into an animal holder and the holder placed onto a transducer platform in an acoustic chamber. […] The amount of the animal's “reaction” to the strong stimulus was recorded. […]

mice [7] = assay: novel object recognition; assay type: in vivo; settings: rolipram 0.1 mg/kg IP 30 minutes prior to training; test 24 hours later; FIG. 8
Description: Since cognitive impairment is associated with psychoses, the effect of amylin administration on novel object recognition was examined. The novel object recognition task was used to measure working memory. See, for example, Miyamoto et al (2005) J. Neuroscience 25:1826-1835. Generally, animals spend less time exploring a previously presented object and more time exploring a novel object when both are presented together. Mice were injected IP with the test agent (rat amylin at 1.0 or 10 mg/kg, 0.1 mg/kg rolipram, or vehicle) 30 minutes prior to the training session. In the training, the mouse was allowed to explore two novel objects placed in the center of an open field. The time spent exploring each object was recorded. The objects differed in color, shape, and texture. Twenty-four hours after the training session, the mouse was placed back in the same open field in which one of the now familiar objects used in the training session was replaced by a novel object. The time spent exploring each object was again recorded. The memory index (or discrimination index) is the time spent exploring the novel object over the total time spent exploring both the novel and familiar objects (times 100). Results of this assay are shown in FIG. 8 where * is P<0.05 vs. vehicle.

des-^1Lys-h-amylin (CNTATCATQRLANFLVHSSNNFGAILSSTNVGSNTY) [human amylin analog of formula I]
amylin activity in vivo (treated test animals): provoking marked hyperlactemia followed by hyperglycemia

CC[C@H](C)[C@H](NC(=O)[C@@H]1CCCN1C(=O)CNC(=O)[C@H](Cc1ccccc1)NC(=O)[C@H](CC(N)=O)NC(=O)[C@H](CC(N)=O)NC(=O)[C@H](CO)NC(=O)[C@H](CO)NC(=O)[C@H](Cc1c[nH]cn1)NC(=O)[C@@H](NC(=O)[C@H](CC(C)C)NC(=O)[C@H](Cc1ccccc1)NC(=O)[C@H](CC(N)=O)NC(=O)[C@H](C)NC(=O)[C@H](CC(C)C)NC(=O)[C@H](CCCNC(=N)N)NC(=O)[C@H](CCC(N)=O)NC(=O)[C@@H](NC(=O)[C@H](C)NC(=O)[C@@H]1CSSC[C@H](NC(=O)[C@@H](N)CCCCN)C(=O)N[C@@H](CC(N)=O)C(=O)N[C@@H]([C@@H](C)O)C(=O)N[C@@H](C)C(=O)N[C@@H]([C@@H](C)O)C(=O)N1)[C@@H](C)O)C(C)C)C(=O)N[C@@H](CC(C)C)C(=O)N1CCC[C@H]1C(=O)N1CCC[C@H]1C(=O)N[C@H](C(=O)N[C@@H](CC(N)=O)C(=O)N[C@H](C(=O)NCC(=O)N[C@@H](CO)C(=O)N[C@@H](CC(N)=O)C(=O)N[C@H](C(=O)N[C@@H](Cc1ccc(O)cc1)C(N)=O)[C@@H](C)O)C(C)C)[C@@H](C)O [^25,28,29Pro-h-amylin]
stability characteristics [1]: more desirable
amylin activity in vivo (treated test animals): provoking marked hyperlactemia followed by hyperglycemia
tendency to adsorb onto glass [2]: does not have a tendency to adsorb onto the glass

des-^1Lys^18Arg^25,28Pro-h-amylin (CNTATCATQRLANFLVRSSNNFGPILPSTNVGSNTY) [human amylin analog of formula I]
amylin activity in vivo (treated test animals): provoking marked hyperlactemia followed by hyperglycemia

^18Arg^25,28Pro-h-amylin (KCNTATCATQRLANFLVRSSNNFGPILPSTNVGSNTY) [human amylin analog of formula I]
amylin activity in vivo (treated test animals): provoking marked hyperlactemia followed by hyperglycemia

O=C1CC2(CCCC2)CC(=O)N1CCCCN1CCN(c2ncccn2)CC1 [buspirone]
reduction in marble burying, significance (mice [3]; amylin at 10 mg/kg, buspirone at 20 mg/kg, P<0.05): statistically significant
number of marbles buried in 30 minutes (mice [3]; rat amylin 0.1, 1.0 or 10 mg/kg, buspirone 20/kg, 15-30 minutes prior, FIG. 3): reduced the number of marbles buried

CN1CCN(C2=Nc3cc(Cl)ccc3Nc3ccccc32)CC1 [clozapine]
baseline activity, agent alone (mice [4]): did affect baseline activity
weight gain compared to vehicle-treated rats [5]: increased weight gain

O=C(CCCN1CCC(O)(c2ccc(Cl)cc2)CC1)c1ccc(F)cc1 [haloperidol]
percent of prepulse inhibition (mice [6]): significantly increased the percent of prepulse inhibition

COc1ccc(C2CNC(=O)C2)cc1OC1CCCC1 (centres unmarked) [rolipram]
relative time exploring the novel object (memory index), in words (mice [7]): increased the relative time exploring the novel object

CC(C)C[C@H](NC(=O)[C@H](CC(N)=O)NC(=O)[C@H](CC(N)=O)NC(=O)[C@H](CO)NC(=O)[C@H](CO)NC(=O)[C@H](CCCNC(=N)N)NC(=O)[C@@H](NC(=O)[C@H](CC(C)C)NC(=O)[C@H](Cc1ccccc1)NC(=O)[C@H](CC(N)=O)NC(=O)[C@H](C)NC(=O)[C@H](CC(C)C)NC(=O)[C@H](CCCNC(=N)N)NC(=O)[C@H](CCC(N)=O)NC(=O)[C@@H](NC(=O)[C@H](C)NC(=O)[C@@H]1CSSC[C@H](NC(=O)[C@@H](N)CCCCN)C(=O)N[C@@H](CC(N)=O)C(=O)N[C@@H]([C@@H](C)O)C(=O)N[C@@H](C)C(=O)N[C@@H]([C@@H](C)O)C(=O)N1)[C@@H](C)O)C(C)C)C(=O)NCC(=O)N1CCC[C@H]1C(=O)N[C@H](C(=O)N[C@@H](CC(C)C)C(=O)N1CCC[C@H]1C(=O)N1CCC[C@H]1C(=O)N[C@H](C(=O)N[C@@H](CC(N)=O)C(=O)N[C@H](C(=O)NCC(=O)N[C@@H](CO)C(=O)N[C@@H](CC(N)=O)C(=O)N[C@H](C(=O)N[C@@H](Cc1ccc(O)cc1)C(N)=O)[C@@H](C)O)C(C)C)[C@@H](C)O)C(C)C [amylin]
baseline activity, agent alone (mice [4]): did not affect baseline activity

^28Pro-h-amylin (KCNTATCATQRLANFLVHSSNNFGAILPSTNVGSNTY) [human amylin analog of formula I]
amylin activity in vivo (treated test animals): provoking marked hyperlactemia followed by hyperglycemia
